The first assay has as its target T1, B1R receptor of the rat (rB1R) (Rattus norvegicus, UniProt P97583).
T1 construct: expressed in transfected cells; host or cells: CHO K1 cells, stably transfected
T1 sequence (P97583 1-337): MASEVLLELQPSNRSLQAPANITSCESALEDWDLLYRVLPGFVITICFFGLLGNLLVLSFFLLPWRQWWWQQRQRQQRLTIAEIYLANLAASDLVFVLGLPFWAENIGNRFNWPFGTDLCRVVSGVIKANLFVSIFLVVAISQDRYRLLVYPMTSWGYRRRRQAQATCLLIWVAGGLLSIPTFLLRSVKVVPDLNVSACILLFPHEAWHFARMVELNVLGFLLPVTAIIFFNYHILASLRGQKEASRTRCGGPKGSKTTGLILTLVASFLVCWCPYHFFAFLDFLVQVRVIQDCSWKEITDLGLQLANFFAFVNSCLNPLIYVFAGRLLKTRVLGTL
The experiment in a line: FLIPR Ca2+ functional study on bradykinin receptor 1, rB1R cells (CHO K1). Type of assay: cell-based. The following applies: 10 μM test substance; CHO K1 cells with rat B1R; agonist Des-Arg9-bradykinin at EC80; read-out: B1R antagonism, rat [10 μM] % inhibition. How it is done:
(§1) The agonistic or antagonistic activity of substances can be quantified on the bradykinin receptor 1 (B1R) of the species human and rat using ectopically expressing cell lines (CHO K1 cells) and with the aid of a Ca^2+-sensitive dye (Fluo-4) using a fluorescent imaging plate reader (FLIPR). The indication in % activation is based on the Ca^2+ signal after addition of Lys-Des-Arg^9-bradykinin (0.5 nM) or Des-Arg^9-bradykinin (100 nM). Antagonists lead to suppression of the Ca^2+ influx after the addition of the agonist. % Inhibition compared with the maximum achievable inhibition is indicated.
(§2) The agonistic or antagonistic activity of substances can be determined on the bradykinin receptor 1 (B1R) of the species human and rat using the following assay. According to this assay, the Ca^2+ influx through the channel is quantified with the aid of a Ca^2+-sensitive dye (Fluo-4 type, Molecular Probes Europe BV, Leiden, Netherlands) using a Fluorescent Imaging Plate Reader (FLIPR, Molecular Devices, Sunnyvale, USA).
(§3) Chinese hamster ovary cells (CHO K1 cells) which have been stably transfected with the human B1R gene (hB1R cells) or with the B1R gene of the rat (rB1R cells) are used. For functional studies, the cells are plated out on black 96-well plates having a clear base (BD Biosciences, Heidelberg, Germany or Greiner, Frickenhausen, Germany) in a density of 20,000-35,000 cells/well. The cells are left overnight at 37° C. and with 5% CO2 in culture medium (hB1R cells: Nutrient Mixture Ham's F12, Gibco Invitrogen GmbH, Karlsruhe, Germany or DMEM, Sigma-Aldrich, Taufkirchen, Germany; rB1R cells: D-MEM/F12, Gibco Invitrogen GmbH, Karlsruhe, Germany), with 10 vol. % FBS (fetal bovine serum, Gibco Invitrogen GmbH, Karlsruhe, Germany or PAN Biotech GmbH, Aidenbach, Germany). On the following day, the cells are loaded for 60 minutes at 37° C. with 2.13 μM Fluo-4 (Molecular Probes Europe BV, Leiden, Netherlands) in HBSS buffer (Hank's buffered saline solution, Gibco Invitrogen GmbH, Karlsruhe, Germany) […] (Sigma-Aldrich, Taufkirchen, Germany) and 10 mM HEPES (Sigma-Aldrich, Taufkirchen, Germany). The plates are then washed twice with HBSS buffer, and HBSS buffer additionally containing 0.1% BSA (bovine serum albumin; Sigma-Aldrich, Taufkirchen, Germany), 5.6 mM glucose and 0.05% gelatin (Merck KGaA, Darmstadt, Germany) is added to the plates. After incubation for a further 20 minutes at room temperature, the plates are inserted into the FLIPR for Ca^2+ measurement. Alternatively, washing is carried out with buffer A (15 mM HEPES, 80 mM NaCl, 5 mM KCl, 1.2 mM CaCl2, 0.7 mM MgSO4, 2 g/l glucose, 2.5 mM probenecid) followed by loading with buffer A with added 2.5 μM Fluo-4 and 0.025% Pluronic F127 (Sigma-Aldrich, Taufkirchen, Germany). The cells are then washed twice with buffer A and incubated for 30 minutes at room temperature with buffer A additionally containing 0.05% BSA and 0.05% gelatin and are then inserted into the FLIPR for Ca^2+ measurement. The Ca^2+-dependent fluorescence is measured before and after the addition of substances (λex=488 nm, λem=540 nm). Quantification is carried out by measuring the highest fluorescence intensity (FC, fluorescence counts) over time.
(§4) The FLIPR protocol consists of two substance additions. Test substances (10 μM) are first pipetted onto the cells and the Ca^2+ influx is compared with the control (hB1R: Lys-Des-Arg^9-bradykinin >=50 nM; rB1R: Des-Arg^9-bradykinin 10 μM). This gives the activation in %, based on the Ca^2+ signal after addition of Lys-Des-Arg^9-bradykinin (>=50 nM) or Des-Arg^9-bradykinin (10 μM). After 10-20 minutes' incubation, Lys-Des-Arg^9-bradykinin (hB1R) or Des-Arg^9-bradykinin (rB1R) is applied in the concentration of the EC80, and the influx of Ca^2+ is likewise determined. Antagonists lead to suppression of the Ca^2+ influx. The % inhibition compared with the maximum achievable inhibition is calculated. […]
As a reminder, the inhibition is the share of the control response that was lost under treatment. Turning to `O=C(c1ccc2c(c1)CN(C(=O)c1ccc(Cl)s1)C2)N1CCC2(CC1)CCN(c1ccncc1)CC2` [Compound G-69, [2-(5-Chloro-thiophene-2-carbonyl)-2,3-dihydro-1H-isoindol-5-yl]-(9-pyridin-4-yl-3,9-diazaspiro[5.5]undecan-3-yl)-methanone], the inhibition at 10 µM amounted to 70%. Same read-out and setting: in the case of `COc1cc(C)c(S(=O)(=O)N2CCCc3ccc(C(=O)N4CCC5(CCN(Cc6ccccc6)C5)C4)cc32)c(C)c1` (centres unmarked) [G_CC-027, (7-Benzyl-2,7-diazaspiro[4.4]nonan-2-yl)(1-(4-methoxy-2,6-dimethylphenylsulfonyl)-1,2,3,4-tetrahydroquinolin-7-yl)methanone] it was 58%; in that of `COc1cc(C)c(S(=O)(=O)N2CCc3ccc(C(=O)N4CCC5(CC4)CCN(Cc4ccc(F)cc4)C5=O)cc3C2)c(C)c1` [G_CC-039, 2-(4-Fluorobenzyl)-8-(2-(4-methoxy-2,6-dimethylphenylsulfonyl)-1,2,3,4-tetrahydroisoquinoline-7-carbonyl)-2,8-diazaspiro[4.5]decan-1-one], 71%. Same read-out and setting: in the case of `COc1cc(C)c(S(=O)(=O)N2CCCc3ccc(C(=O)N4CCC5(CC4)CCN(Cc4ccccc4)C5=O)cc32)c(C)c1` [G_CC-026, 2-Benzyl-8-(1-(4-methoxy-2,6-dimethylphenylsulfonyl)-1,2,3,4-tetrahydroquinoline-7-carbonyl)-2,8-diazaspiro[4.5]decan-1-one] it was 58%. On the same count and under the same terms, in the case of `O=C(c1ccc2c(c1)CN(C(=O)c1ccccc1Cl)CC2)N1CCC2(CC1)CCN(c1ccncc1)CC2` [G_CC-045, (2-(2-Chlorobenzoyl)-1,2,3,4-tetrahydroisoquinolin-7-yl)(9-(pyridin-4-yl)-3,9-diazaspiro[5.5]undecan-3-yl)methanone] it was 92%; in that of `COc1cc(C)c(S(=O)(=O)N2CCc3ccc(C(=O)N4CCC5(CC4)CCN(c4ccncc4)CC5)cc32)c(C)c1` [G_CC-008, (1-(4-Methoxy-2,6-dimethylphenylsulfonyl)indolin-6-yl)(9-(pyridin-4-yl)-3,9-diazaspiro[5.5]undecan-3-yl)methanone], 100%. `COc1cc(C)c(S(=O)(=O)N2CCc3ccc(C(=O)N4CCC5(CCN(Cc6ccccc6)C5)C4)cc3C2)c(C)c1` (centres unmarked) [G_CC-041, (7-Benzyl-2,7-diazaspiro[4.4]nonan-2-yl)(2-(4-methoxy-2,6-dimethylphenylsulfonyl)-1,2,3,4-tetrahydroisoquinolin-7-yl)methanone]: the inhibition at 10 µM was determined as 64%. Turning to `COc1cc(C)c(S(=O)(=O)N2CCc3ccc(C(=O)N4CCC5(CCN(Cc6ccccc6)C5)C4)cc32)c(C)c1` (centres unmarked) [G_CC-007, (7-Benzyl-2,7-diazaspiro[4.4]nonan-2-yl)(1-(4-methoxy-2,6-dimethylphenylsulfonyl)indoline-6-yl)methanone], the inhibition at 10 µM came out at 59%. The same measure, in the same setting: in the case of `COc1cc(C)c(S(=O)(=O)N2CCc3ccc(C(=O)N4CCC5(CC4)CCN(Cc4ccc(F)cc4)C5=O)cc32)c(C)c1` [G_CC-006, 2-(4-Fluorobenzyl)-8-(1-(4-methoxy-2,6-dimethylphenylsulfonyl)indoline-6-carbonyl)-2,8-diazaspiro[4.5]decan-1-one] it was 71%; in that of `COc1cc(C)c(S(=O)(=O)N2CCCc3ccc(CC(=O)N4CCC5(CCN(Cc6ccccc6)C5)C4)cc32)c(C)c1` (centres unmarked) [G_CC-054, 1-(7-Benzyl-2,7-diazaspiro[4.4]nonan-2-yl)-2-(1-(4-methoxy-2,6-dimethylphenylsulfonyl)-1,2,3,4-tetrahydroquinolin-7-yl)ethanone], 71%.

Consider `O=C(c1ccc2c(c1)CN(C(=O)c1ccccc1Cl)C2)N1CCC2(CC1)CCN(Cc1ccc(F)cc1)C2=O` [G_CC-018, 8-(2-(2-Chlorobenzoyl)isoindoline-5-carbonyl)-2-(4-fluorobenzyl)-2,8-diazaspiro[4.5]decan-1-one], for which the inhibition at 10 µM was found to be 51%. As for `O=C(c1ccc2c(c1)N(C(=O)c1ccccc1Cl)CC2)N1CCC2(CC1)CCN(c1ccncc1)CC2` [G_CC-009, (1-(2-Chlorobenzoyl)indolin-6-yl)(9-(pyridin-4-yl)-3,9-diazaspiro[5.5]undecan-3-yl)methanone], the inhibition at 10 µM is 78%. Same read-out and setting: in the case of `COc1cc(C)c(S(=O)(=O)N2CCCc3ccc(C(=O)N4CCC5(CC4)C(=O)N(C)CC5c4ccc(F)cc4)cc32)c(C)c1` (centres unmarked) [G_CC-025, 4-(4-Fluorophenyl)-8-(1-(4-methoxy-2,6-dimethylphenylsulfonyl)-1,2,3,4-tetrahydroquinoline-7-carbonyl)-2-methyl-2,8-diazaspiro[4.5]decan-1-one] it was 51%. Same read-out and setting: in the case of `COc1cc(C)c(S(=O)(=O)N2CCc3ccc(C(=O)N4CCC5(CC4)C(=O)NCN5c4ccccc4)cc3C2)c(C)c1` [G_CC-043, 8-(2-(4-Methoxy-2,6-dimethylphenylsulfonyl)-1,2,3,4-tetrahydroisoquinoline-7-carbonyl)-1-phenyl-1,3,8-triazaspiro[4.5]decan-4-one] it was 74%. Take `COc1cc(C)c(S(=O)(=O)N2CCCc3ccc(CC(=O)N4CCC5(CC4)CCN(Cc4ccccc4)C5=O)cc32)c(C)c1` [G_CC-053, 2-Benzyl-8-(2-(1-(4-methoxy-2,6-dimethylphenylsulfonyl)-1,2,3,4-tetrahydroquinolin-7-yl)acetyl)-2,8-diazaspiro[4.5]decan-1-one]: the inhibition at 10 µM was found to be 84%. On the same count and under the same terms, for `COc1cc(C)c(S(=O)(=O)N2CCc3ccc(C(=O)N4CCC5(CC4)CCN(Cc4ccccc4)C5=O)cc3C2)c(C)c1` [G_CC-040, 2-Benzyl-8-(2-(4-methoxy-2,6-dimethylphenylsulfonyl)-1,2,3,4-tetrahydroisoquinoline-7-carbonyl)-2,8-diazaspiro[4.5]decan-1-one] the value was 70%.

The target in the next assay is T2, human B1R receptor (hB1R) (Homo sapiens, UniProt P46663).
T2 construct: expressed in transfected cells; host or cells: CHO K1 cells, stably transfected
T2 sequence (P46663 1-353): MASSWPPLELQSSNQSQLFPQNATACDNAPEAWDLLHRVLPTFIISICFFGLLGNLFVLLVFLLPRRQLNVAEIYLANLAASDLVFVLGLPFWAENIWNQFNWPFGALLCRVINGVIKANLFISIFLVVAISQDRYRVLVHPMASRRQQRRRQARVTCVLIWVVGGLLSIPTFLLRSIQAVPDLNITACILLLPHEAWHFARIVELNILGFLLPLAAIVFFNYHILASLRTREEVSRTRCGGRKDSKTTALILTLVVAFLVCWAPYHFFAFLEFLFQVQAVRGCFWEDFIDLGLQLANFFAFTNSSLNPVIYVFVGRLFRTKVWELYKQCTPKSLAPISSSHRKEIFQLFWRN
As to the kind of experiment: FLIPR Ca2+ functional study on bradykinin receptor 1, hB1R cells (CHO K1). The assay is classed as cell-based. The following applies: CHO-K1, 10 μM test substance; CHO K1 cells with human B1R; agonist Lys-Des-Arg9-bradykinin at EC80; read-out: B1R antagonism, human [10 μM] % inhibition. On the procedure: as §1, §2, §3, §4
As to `O=C(c1ccc2c(c1)CN(C(=O)c1ccc(Cl)s1)C2)N1CCC2(CC1)CCN(c1ccncc1)CC2` [Compound G-69, [2-(5-Chloro-thiophene-2-carbonyl)-2,3-dihydro-1H-isoindol-5-yl]-(9-pyridin-4-yl-3,9-diazaspiro[5.5]undecan-3-yl)-methanone], the inhibition at 10 µM stood at 99%.
